Measured values: US20260138948A1, “N-SUBSTITUTED INDOLES AS 5-HYDROXYTRYPTAMINE (5-HT) SEROTONIN RECEPTOR AGONISTS AND ANTAGONISTS” (Terran Biosciences Inc., priority 2021, published 2026)

Tests used:
5-HT2B receptor = target: T1, 5-HT2B receptor (Homo sapiens, UniProt P41595); experiment: Calcium mobilization assay, agonist format, 5-HT2B; assay type: cell-based; details: % activity relative to control ligand, read-out: 5-HT2B agonist efficacy @5 µM
T1 construct: host or cells: unnamed cell lines
Experimental: (§1) Protocol—in vitro testing at select 5-hydroxytryptamine (5-HT; serotonin) receptors was conducted.
(§2) • 1. Cell lines were expanded from freezer stocks according to standard procedures. • 2. Cells were seeded in a total volume of 20 μL into black-walled, clear-bottom, Poly-D-lysine coated 384-well microplates and incubated at 37° C. for the appropriate time prior to testing.
(§3) • 1. Assays were performed in 1× Dye Loading Buffer consisting of 1× Dye, 1× Additive A and • 2.5 mM Probenecid in HBSS/20 mM Hepes. Probenicid was prepared fresh. • 2. Cells were loaded with dye prior to testing. Media was aspirated from cells and replaced with 20 μL Dye Loading Buffer. • 3. Cells were incubated for 30-60 minutes at 37° C.
(§4) • 1. For agonist determination, cells were incubated with sample to induce response. • 2. After dye loading, cells were removed from the incubator and 10 μL HBSS/20 mM Hepes was added. 3× vehicle was included in the buffer when performing agonist dose curves to define the EC80 for subsequent antagonist assays. Cells were incubated for 30 minutes at room temperature in the dark to equilibrate plate temperature. • 3. Intermediate dilution of sample stocks was performed to generate 4× sample in assay buffer. • 4. Compound agonist activity was measured on a FLIPR Tetra (MDS). Calcium mobilization was monitored for 2 minutes and 10 μL 4× sample in HBSS/20 mM Hepes was added to the cells 5 seconds into the assay.
(§5) • 1. Compound activity was analyzed using CBIS data analysis suite (ChemInnovation, CA). • 2. For agonist mode assays, percentage activity is calculated using the following formula: % Activity=100%×(mean RFU of test sample−mean RFU of vehicle control)/(mean MAX RFU control ligand −mean RFU of vehicle control). • 3. For positive allosteric mode assays, percentage modulation was calculated using the following formula: % Modulation=100%×((mean RFU of test sample−mean RFU of EC20 control)/(mean RFU of MAX control ligand −mean RFU of EC20 control)). • 4. For antagonist and negative allosteric modulation mode assays, percentage inhibition is calculated using the following formula: % Inhibition=100%×(1−(mean RFU of test sample−mean RFU of vehicle control)/(mean RFU of EC80 control−mean RFU of vehicle control)).

5-HT2A receptor [1] = target: T2, 5-HT2A receptor (Homo sapiens, UniProt P28223); experiment: Calcium mobilization assay, agonist format, 5-HT2A; assay type: cell-based; details: % activity relative to control ligand, read-out: 5-HT2A agonist efficacy @10 µM
T2 construct: host or cells: unnamed cell lines
Experimental: as §1, §2, §3, §4, §5

5-HT2C receptor = target: T3, 5-HT2C receptor (Homo sapiens, UniProt P28335); experiment: Calcium mobilization assay, antagonist format, 5-HT2C; assay type: cell-based; details: for inhibition at 10 µM: agonist challenge at EC80; for antagonism of the 5-HT2C receptor: 10 μM (ten micromolar)
T3 construct: host or cells: unnamed cell lines
T3 sequence (P28335 33-458): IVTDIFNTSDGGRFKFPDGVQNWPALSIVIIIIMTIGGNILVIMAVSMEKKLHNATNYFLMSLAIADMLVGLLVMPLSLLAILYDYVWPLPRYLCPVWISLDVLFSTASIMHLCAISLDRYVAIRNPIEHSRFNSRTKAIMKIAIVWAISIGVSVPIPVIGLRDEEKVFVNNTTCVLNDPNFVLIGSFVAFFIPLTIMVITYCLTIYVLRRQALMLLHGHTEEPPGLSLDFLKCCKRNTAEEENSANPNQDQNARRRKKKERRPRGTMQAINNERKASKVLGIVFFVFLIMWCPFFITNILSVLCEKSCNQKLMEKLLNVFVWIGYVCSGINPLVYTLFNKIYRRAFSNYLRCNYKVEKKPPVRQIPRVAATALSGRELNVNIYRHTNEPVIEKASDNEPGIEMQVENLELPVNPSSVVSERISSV
Experimental: as §1, §2, §3
(§6) • 1. For antagonist determination, cells were pre-incubated with sample followed by agonist challenge at the EC80 concentration. • 2. Intermediate dilution of sample stocks was performed to generate 3× sample in assay buffer. • 3. After dye loading, cells were removed from the incubator and 10 μL 3× sample was added. Cells were incubated for 30 minutes at room temperature in the dark to equilibrate plate temperature. Vehicle concentration was 1%. • 4. Compound antagonist activity was measured on a FLIPR Tetra (MDS). Calcium mobilization was monitored for 2 minutes and 10 μL EC80 agonist in HBSS/20 mM Hepes was added to the cells 5 seconds into the assay.
as §5
[…] For research comparative purposes, a literature compound—(R)-1-(5-methoxy-1H-indol-1-yl)-N,N-dimethylpropan-2-amine (AAZ-A-154) (Cell 2021, 184, 2779-2792.e18)—was included in the screening assays. Additionally, 5-hydroxytryptamine/serotonin (5-HT) was included in the screening assay as a positive control agonist, and SB242084 was used in the screening assay as a literature 5-HT2C antagonist positive control. […] Compounds 2, 3 and 93 each achieved greater than 75% antagonism of the 5-HT2C receptor, with compounds 3 and 93 achieving approximately 98% and 97% antagonism, respectively.

5-HT2A receptor [2] = target: T2, 5-HT2A receptor; experiment: Calcium mobilization assay, antagonist format, 5-HT2A; assay type: cell-based; details: @100 nM; agonist challenge at EC80
Experimental: as §1, §2, §3, §6, §5
Compounds were evaluated as 5-HT2A antagonists at 100 nM (one hundred nanomolar), or may be evaluated at a higher concentration. For research comparative purposes, a literature compound—(R)-1-(5-methoxy-1H-indol-1-yl)-N,N-dimethylpropan-2-amine (AAZ-A-154) (Cell 2021, 184, 2779-2792.e18)—was included in the screening assays. Additionally, 5-hydroxytryptamine/serotonin (5-HT) was included in the screening assay as a positive control agonist, and Altanserin HCl was included as a 5-HT2A antagonist positive control.

5HT2A sensor = details: general statement on known hallucinogens and non-hallucinogenic congeners; cited from earlier work
[3] = Metabolic stability in human liver microsomes; assay type: in vitro ADME; details: for difference in half-life and intrinsic clearance compared with reference compound (R)-1-(5-methoxy-1H-indol-1-yl)-N,N-dimethylpropan-2-amine / microsomal CLint at 1 μM: human liver microsomes; for difference in half-life and intrinsic clearance compared with reference compound (R)-1-(5-methoxy-1H-indol-1-yl)-N,N-dimethylpropan-2-amine: comment on Table 2; for half-life at 1 μM / microsomal CLint at 1 μM / CLint scaled at 1 μM: liver microsomes (pooled); for half-life at 1 μM: human liver microsomes 0.5 mg/mL, test compound 1.0 μM, 37° C., NADPH; for microsomal CLint at 1 μM: intrinsic clearance = 0.693/T1/2/mg microsome protein per mL, read-out: CLint(mic); for CLint scaled at 1 μM: human, scaled from CLint(mic) with 45 mg microsomal protein/g liver and 20 g liver/kg
Experimental: The test compound at 1.0 μM in singlet, or positive controls including Testosterone (CYP3A4 substrate), Propafenone (CYP2D6 substrate) or Diclofenac (CYP2C9 substrate) was incubated with the liver microsomes (Corning, Xenotech, or other credible vendor, pooled from multiple donors) at 0.5 mg/mL, respectively. The mixture was warmed up at 37° C. for 10 minutes and the reactions were initiated by the addition of a NADPH regenerating system (˜1.0 mM). The test compound incubated with the liver microsomes at 37° C. without the NADPH regenerating system served as the negative control reaction.
The reaction samples were removed at multiple time points (such as 0, 5, 15, 30, 45 and 60 minutes) and the sample without NADPH (NCF) was removed at 60 minutes. All the samples were immediately mixed with cold acetonitrile containing internal standard (IS) to stop the reaction.
Samples were analyzed by LC/MS/MS and the disappearance of test compound were assessed base on peak area ratios of analyte/IS (no standard curve). The microsomal intrinsic clearance and T1/2 values were calculated using the following equation: […]
The microsomal intrinsic clearance and T1/2 values were calculated using the following equation: […]
In these experiments the comparator compound was a suitable reference standard. In one embodiment the comparator compound was (R)-1-(5-methoxy-1H-indol-1-yl)-N,N-dimethylpropan-2-amine.

T2 sequence (P28223 whole entry): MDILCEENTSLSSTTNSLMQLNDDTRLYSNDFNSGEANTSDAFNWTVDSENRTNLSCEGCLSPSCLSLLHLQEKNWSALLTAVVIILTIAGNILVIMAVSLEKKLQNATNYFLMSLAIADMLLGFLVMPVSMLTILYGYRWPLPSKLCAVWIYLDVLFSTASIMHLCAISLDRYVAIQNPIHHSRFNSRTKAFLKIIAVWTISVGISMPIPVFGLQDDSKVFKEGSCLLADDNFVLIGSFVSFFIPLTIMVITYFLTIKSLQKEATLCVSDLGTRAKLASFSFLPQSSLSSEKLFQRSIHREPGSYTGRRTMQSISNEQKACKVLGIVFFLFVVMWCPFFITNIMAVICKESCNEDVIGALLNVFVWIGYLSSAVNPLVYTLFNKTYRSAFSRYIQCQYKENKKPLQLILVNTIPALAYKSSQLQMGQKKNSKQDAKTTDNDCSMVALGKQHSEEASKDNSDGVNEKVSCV
T1 sequence (P41595 whole entry): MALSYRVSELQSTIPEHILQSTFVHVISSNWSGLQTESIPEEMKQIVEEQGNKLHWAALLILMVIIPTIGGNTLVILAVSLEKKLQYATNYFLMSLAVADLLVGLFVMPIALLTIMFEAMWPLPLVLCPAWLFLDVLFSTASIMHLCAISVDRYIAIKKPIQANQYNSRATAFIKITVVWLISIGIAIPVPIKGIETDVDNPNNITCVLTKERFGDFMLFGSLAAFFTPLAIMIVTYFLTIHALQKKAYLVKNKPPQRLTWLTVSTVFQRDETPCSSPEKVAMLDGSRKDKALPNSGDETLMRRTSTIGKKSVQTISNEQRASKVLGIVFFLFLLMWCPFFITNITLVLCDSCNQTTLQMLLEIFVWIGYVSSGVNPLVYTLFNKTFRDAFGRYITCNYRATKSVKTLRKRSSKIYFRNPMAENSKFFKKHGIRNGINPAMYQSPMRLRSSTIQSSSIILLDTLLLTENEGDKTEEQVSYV

| Structure (SMILES) | activation at 5 µM (5-HT2B receptor) | activation at 10 µM (5-HT2A receptor [1]) | inhibition at 10 µM (5-HT2C receptor) | inhibition at 0.1 µM (5-HT2A receptor [2]) | activation of the 5HT2A sensor assay in agonist mode (5HT2A sensor) | also measured |
| --- | --- | --- | --- | --- | --- | --- |
| COc1ccn2c(CC(C)N(C)C)cnc2c1 (racemic) [Compound 91, (R/S)-1-(7-methoxyimidazo[1,2-a]pyridin-3-yl)-N,N-dimethylpropan-2-amine] | 1% | 0.6% | 6.1% | -3.3% |  |  |
| COc1ccn2c(CC(C)N(C)C)ncc2c1 (racemic) [Compound 92, (R/S)-1-(7-methoxyimidazo[1,5-a]pyridin-3-yl)-N,N-dimethylpropan-2-amine] | 2% | 0.3% | 7.2% | 1.6% |  |  |
| CC(Cc1ncn2cc(F)ccc12)N(C)C (racemic) [Compound 93, (R/S)-1-(6-fluoroimidazo[1,5-a]pyridin-1-yl)-N,N-dimethylpropan-2-amine] | 2.7% | 1.8% | 97.1% | 5.7% |  | antagonism of the 5-HT2C receptor (5-HT2C receptor): ~97% |
| CCN(CC)C(=O)[C@@H]1C=C2c3cccc4[nH]c(Br)c(c34)C[C@H]2N(C)C1 [BOL148] |  |  |  |  | do not activate the 5HT2A sensor assay in agonist mode |  |
| C[C@H](Cn1ccc2cc(OC3CC3)ccc21)N(C)C [Compound 1, (R)-1-(5-cyclopropoxy-1H-indol-1-yl)-N,N-dimethylpropan-2-amine] | -0.7% | -1.4% | 20.7% | -13.2% |  |  |
| C[C@H](Cn1ccc2cc(S(F)(F)(F)(F)F)ccc21)N(C)C [Compound 2, (2R)-N,N-dimethyl-1-[5-(pentafluoro-λ^6-sulfanyl)indol-l-yl]propan-2-amine] | 6.4% | 4.4% | 76.4% | -0.8% |  |  |
| C[C@H](Cn1ccc2c3c(ccc21)OCCC3)N(C)C [Compound 3, (R)-1-(8,9-dihydropyrano[3,2-e]indol-3(7H)-yl)-N,N-dimethylpropan-2-amine] | 1% | 9.7% | 98.1% | -7.3% |  | antagonism of the 5-HT2C receptor (5-HT2C receptor): approximately 98% |
| [2H]C([2H])([2H])N(C([2H])([2H])[2H])[C@]([2H])(C([2H])([2H])[2H])C([2H])([2H])n1ccc2cc(OC)ccc21 [Compound 6, (2R)-1,1,1,2,3,3-hexadeuterio-3-(5-methoxyindol-1-yl)-N,N-bis(trideuteriomethyl)propan-2-amine] |  |  |  |  |  | difference in half-life and intrinsic clearance compared with reference compound (R)-1-(5-methoxy-1H-indol-1-yl)-N,N-dimethylpropan-2-amine [3]: significant and beneficial differences in half-life and intrinsic clearance; half-life at 1 μM [3]: 1.82 h; microsomal CLint at 1 μM [3]: 12.7 µL/min/mg; CLint scaled at 1 μM [3]: 11.4 mL/min/kg |
| CCN(CC)CCc1c[nH]c2cc(F)ccc12 [Compound 6-F-DET] |  |  |  |  | do not activate the 5HT2A sensor assay in agonist mode |  |
| COc1ccc2c(CCN(C)C)c[nH]c2c1 [Compound 6-MeO-DMT] |  |  |  |  | do not activate the 5HT2A sensor assay in agonist mode |  |
| [2H]C([2H])([2H])Oc1ccc2c(ccn2C([2H])([2H])[C@]([2H])(N(C)C)C([2H])([2H])[2H])c1 [Compound 151, (2R)-1,1,1,2,3,3-hexadeuterio-N,N-dimethyl-3-[5-(trideuteriomethoxy)indol-1-yl]propan-2-amine] |  |  |  |  |  | difference in half-life and intrinsic clearance compared with reference compound (R)-1-(5-methoxy-1H-indol-1-yl)-N,N-dimethylpropan-2-amine [3]: most significant difference in half-life and intrinsic clearance ratio; half-life at 1 μM [3]: 2 h; microsomal CLint at 1 μM [3]: 11.5 µL/min/mg; CLint scaled at 1 μM [3]: 10.4 mL/min/kg |
| [2H]C([2H])([2H])Oc1ccc2c(ccn2C([2H])([2H])[C@]([2H])(N(C([2H])([2H])[2H])C([2H])([2H])[2H])C([2H])([2H])[2H])c1 [Compound 152, (2R)-1,1,1,2,3,3-hexadeuterio-3-[5-(trideuteriomethoxy)indol-1-yl]-N,N-bis(trideuteriomethyl)propan-2-amine] |  |  |  |  |  | difference in half-life and intrinsic clearance compared with reference compound (R)-1-(5-methoxy-1H-indol-1-yl)-N,N-dimethylpropan-2-amine [3]: significant and beneficial differences in half-life and intrinsic clearance; half-life at 1 μM [3]: 1.91 h; microsomal CLint at 1 μM [3]: 12.4 µL/min/mg; CLint scaled at 1 μM [3]: 11.1 mL/min/kg |
| CN(C)CCc1c[nH]c2ccccc12 [DMT, N,N-dimethyltryptamine] |  |  |  |  | activate the 5HT2A sensor assay in agonist mode |  |
| COc1cc(CC(C)N)c(OC)cc1I (stereo not shown) [DOI, 2,5-dimethoxy-4-iodoamphetamine] |  |  |  |  | activate the 5HT2A sensor assay in agonist mode |  |
| O=C(c1ccc(F)cc1)C1CCN(CCn2c(=O)[nH]c3ccccc3c2=O)CC1 [Ketanserin, ketanserin] |  |  |  |  | do not activate the 5HT2A sensor assay in agonist mode |  |
| CN[C@H](C)Cc1ccc2c(c1)OCO2 [L-MDMA] |  |  |  |  | do not activate the 5HT2A sensor assay in agonist mode |  |
| CCN(CC)C(=O)[C@@H]1C=C2c3cccc4[nH]cc(c34)C[C@H]2N(C)C1 [LSD, lysergic acid diethylamide] |  |  |  |  | activate the 5HT2A sensor assay in agonist mode |  |
